Holding throughout (assay): NCI anticancer screen, dose series, 48 h
Assay [1] concerns SN12C renal.
Assay [2] relates to TK-10 renal.
The test system of assay [3] is HOP-62 NSCLC.
For assay [4], the system named is UACC-257 melanoma.
In assay [5] the test system is EKVX NSCLC.
Assay [6] concerns T-47D breast.
Assay [7] concerns SK-MEL-5 melanoma.
In assay [8] the test system is HCT-116 colon.
Assay [9] relates to OVCAR-8 ovarian.
Assay [10] has as its system HS 578T breast.
Assay [11] relates to OVCAR-3 ovarian.
Assay [12] has as its system NCI-H460 lung.
The test system of assay [13] is SF-539 CNS.
Assay [14] has as its system DU-145 prostate.
Assay [15] has as its system SW-620 colon.

Among the data in PubChem BioAssay (NCI) are TGI and GI50 values, retold here.

Structures are written as SMILES.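 Dose response: 5 concentrations. Exposure: 48 h. Format: 96-well plates. Endpoint: linear interpolation; highest concentration if not reached. GI50: concentration for 50% inhibition of growth. At the TGI there is no net growth.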

On to `CCOC(=O)c1c(NC(=O)c2cccs2)sc2c1CCC2`, for which the TGI in assay [1], in [2], in [3], in [4], in [5] and in assay [6] was greater than 100 µM each time. Also, the TGI in assay [7], in assay [8], in [9], in assay [10], in assay [11] and in assay [12] was greater than 100 µM in each case. In addition, the TGI in assay [13] and in assay [14] was greater than 100 µM each time.
On to `O=S(=O)(SC1=NCCN1)c1ccc2ccccc2c1`, for which the TGI in [1] was 68.9 µM; in [2], greater than 100 µM; in assay [3] it was 69.5 µM; in [4] it was greater than 100 µM; in [5] it was greater than 100 µM; in assay [6] it was greater than 100 µM. The TGI in [7] is 64.5 µM; in assay [8] it was 62.4 µM; in assay [9], 40.5 µM; in [15], 43.6 µM; in assay [10], greater than 100 µM; in [11], 97.2 µM. For the same compound, the TGI in assay [12] was 42.8 µM; in assay [13] it was 63.7 µM; in [14], greater than 100 µM.
With `CCC/C=C/c1cc2c(cc1O)CC[C@@H]1[C@@H]2CC[C@]2(C)[C@@H](O)CC[C@@H]12`, the GI50 in [1] is 17.1 µM; in assay [3], 21.9 µM; in [8], 17.2 µM; in assay [13], 20.2 µM; in [14] it was 18.7 µM. The TGI in assay [1] was determined as 32.4 µM; in assay [2], 38 µM; in [3] it was 42.6 µM; in assay [4], 30.8 µM; in assay [5], 41.2 µM; in assay [6], 77.1 µM. Moreover, the TGI is 30.2 µM in assay [7]; 31.6 µM in assay [8]; 64.2 µM in [9]; 37.4 µM in assay [15]; 57.6 µM in assay [10]; 47 µM in assay [11]. Moreover, the TGI in assay [12] came to 33 µM; in [13] it was 35.7 µM; in [14], 34.2 µM.
Consider `CN(CCC(=O)O)C1=Nc2ccc(Cl)cc2C(c2ccccc2)=[N+]([O-])C1`, for which the TGI in assay [1], in assay [2], in assay [3], in [4], in assay [5] and in [6] was greater than 100 µM each time. Moreover, the TGI in assay [7], in [8], in assay [9], in assay [15], in assay [10] and in assay [11] was greater than 100 µM each time. Moreover, the TGI in assay [12], in assay [13] and in assay [14] was greater than 100 µM throughout.
Take `CCCCCCCCCCCCN(CC(O)C(O)C(OC1OC(CO)C(O)C(O)C1O)C(O)CO)C(=O)CCCCCCCCCCC` (configuration not stated): the TGI in assay [1] worked out at 45.4 µM; in [2] it was 29.9 µM; in assay [3], 55.6 µM; in assay [4], 36.6 µM; in assay [5] it was 34.4 µM; in [6] it was 62.3 µM. Moreover, the TGI in assay [7] is 31.3 µM; in [8] it was 36.4 µM; in assay [9], 46.7 µM; in assay [15], 33.6 µM; in [10], 82.7 µM; in [11] it was 49.2 µM. Besides, the TGI in assay [12] is 39.7 µM; in assay [13] it was greater than 100 µM; in assay [14] it was 35.8 µM.
Consider `CC(C)NC(NC(C)C)=C(S(=O)(=O)C(F)(F)C(F)(F)C(F)(F)C(F)(F)F)S(=O)(=O)C(F)(F)C(F)(F)C(F)(F)C(F)(F)F`, for which the TGI in assay [1], in assay [2], in [3], in assay [4], in assay [5] and in [6] was greater than 100 µM in each case. The TGI in assay [7], in assay [8], in assay [9], in [15], in assay [10] and in assay [11] was greater than 100 µM each time. Besides, the TGI in [12], in assay [13] and in assay [14] was greater than 100 µM throughout.
For `CC(=N)OC1CC2CCC1(C)C2(C)C` (configuration not stated), the TGI in [1], in assay [2], in [3], in assay [4], in assay [5] and in [6] was greater than 100 µM in each case. Also, the TGI in assay [7], in [8], in assay [9], in [15], in [10] and in assay [11] was greater than 100 µM in each case. Further, the TGI in assay [12], in assay [13] and in [14] was greater than 100 µM each time.
Regarding `COc1nc(N=P(c2ccccc2)(c2ccccc2)c2ccccc2)cc(=O)[nH]1`, the TGI in assay [1], in assay [2], in assay [3], in assay [4], in assay [5] and in assay [6] was greater than 100 µM in each case. Besides, the TGI in assay [7], in assay [8], in assay [9], in assay [15], in assay [10] and in [11] was greater than 100 µM throughout. The TGI in [12], in assay [13] and in assay [14] was greater than 100 µM in each case.
Consider `COC(=O)c1cc2c(cc1CC1Cc3cc4c(cc3C1=O)CCC4)CCC2` (configuration not stated), for which the TGI in [1], in [2], in [3], in assay [4], in assay [5] and in [6] was greater than 100 µM in each case. For the same compound, the TGI in assay [7] is 42.5 µM; in assay [8], greater than 100 µM; in assay [9] it was greater than 100 µM; in assay [15], greater than 100 µM; in assay [10], greater than 100 µM; in assay [11] it was greater than 100 µM. The TGI in assay [12], in assay [13] and in assay [14] was greater than 100 µM in each case.
Take `Nc1cccnc1NCC1(CO)CCCC1`: the TGI in [1], in assay [2], in assay [3], in assay [4], in [5] and in assay [6] was greater than 100 µM throughout. Moreover, the TGI in [7], in assay [8], in assay [9], in assay [15], in assay [10] and in [11] was greater than 100 µM each time. In addition, the TGI in [12], in assay [13] and in assay [14] was greater than 100 µM each time.
As for `CCCCC(=O)c1ccc2ccccc2c1O`, the TGI in assay [2], in assay [3], in assay [4], in assay [5], in [6] and in assay [7] was greater than 100 µM each time. For the same compound, the TGI in assay [8], in [9], in assay [15], in assay [10], in [12] and in [13] was greater than 100 µM throughout. In assay [14], this compound returned a TGI greater than 100 µM.
On to `Cc1cc2c(cc1C(=O)CCC(=O)O)CC1(C2)Cc2cc(C)c(C(=O)CCC(=O)O)cc2C1`, for which the TGI in assay [1], in assay [2], in [3], in assay [4], in assay [5] and in assay [6] was greater than 100 µM each time. Also, the TGI in assay [7], in [8], in assay [9], in [15], in assay [10] and in [11] was greater than 100 µM each time. Besides, the TGI in [12], in assay [13] and in assay [14] was greater than 100 µM throughout.
Take `OC1(c2ccc(Cl)cc2)C(N2CCCC2)c2ccccc2C2=NCCN21` (configuration not stated): the TGI was greater than 100 µM in assay [1]; 40 µM in assay [2]; greater than 100 µM in assay [3]; 40.6 µM in [4]; greater than 100 µM in assay [5]; 41 µM in assay [6]. The TGI was 28.4 µM in assay [7]; 46.6 µM in [8]; 58.8 µM in [9]; greater than 100 µM in assay [15]; 89.9 µM in assay [10]; greater than 100 µM in assay [11]. For the same compound, the TGI was greater than 100 µM in assay [12], 39.4 µM in assay [13] and greater than 100 µM in [14].
On to `COc1ccccc1NC(=S)Nc1cc(C)cc(C)n1`, for which the TGI in [1], in assay [2], in assay [3], in [4], in assay [5] and in assay [6] was greater than 100 µM each time. Moreover, the TGI in assay [7], in assay [8], in assay [9], in [15], in assay [10] and in assay [11] was greater than 100 µM in each case. Also, the TGI in assay [12], in assay [13] and in [14] was greater than 100 µM throughout.
`Cc1ccc([N+](=O)[O-])cc1S(=O)(=O)Nc1ccc(C2=NN(c3ccc([N+](=O)[O-])cc3[N+](=O)[O-])C(c3cccs3)C2)cc1` (configuration not stated): the TGI in [1] was 34.1 µM; in [2] it was 81.7 µM; in assay [3] it was 58.3 µM; in [4], 42.1 µM; in [5], 59.2 µM; in [6], greater than 100 µM. The TGI in assay [7] was 26.1 µM; in assay [8], 29.3 µM; in assay [9], 92.1 µM; in [15], greater than 100 µM; in [10], 79.1 µM; in [11], 34.4 µM. Further, the figures for the TGI in assay [13] and in assay [14] were 71.2 µM and greater than 100 µM, respectively.
As for `Cc1nc(-c2cc3c(ccc4ccccc43)oc2=O)cs1`, the TGI in [1], in [2], in assay [3], in [4], in [5] and in assay [6] was greater than 100 µM in each case. Besides, the TGI is greater than 100 µM in assay [7]; greater than 100 µM in assay [8]; greater than 100 µM in assay [9]; greater than 100 µM in [15]; 99.3 µM in [10]; greater than 100 µM in assay [12]. Further, the TGI in assay [13] and in [14] was greater than 100 µM in each case.
Turning to `O=C1c2[nH]c3ccc(Br)cc3c2CCN1Cc1ccc(Cl)cc1`, the TGI in assay [1] is 39.9 µM; in assay [2], 27.7 µM; in assay [3] it was 26.4 µM; in assay [4], 30 µM; in [5], greater than 100 µM; in assay [6], 29.2 µM. Further, the TGI in assay [7] was determined as 23 µM; in [8] it was 23.5 µM; in assay [9], 48.5 µM; in assay [15], 34.8 µM; in [10] it was 43.3 µM; in [11], 28.5 µM. The results for the TGI in [13] and in assay [14] were 25.5 µM and 28.3 µM, respectively.
For the compound `O=c1cc(N2CCNCC2)nc2ccccn12`, the TGI in [1], in [2], in assay [3], in [4], in assay [5] and in assay [6] was greater than 100 µM throughout. The TGI in assay [7], in assay [8], in [9], in assay [15], in [10] and in [11] was greater than 100 µM throughout. The TGI in [13] and in assay [14] was greater than 100 µM in each case.
For `CN(C)c1ccc(/C=C2/NC(=S)NC2=O)cc1`, the TGI in assay [1], in [2], in [3], in assay [4], in assay [5] and in assay [6] was greater than 100 µM throughout. For the same compound, the TGI in assay [7], in assay [8], in assay [9], in assay [15], in [10] and in assay [11] was greater than 100 µM in each case. Besides, the TGI in assay [13] and in [14] was greater than 100 µM each time.
